From ChEMBL document CHEMBL1201862, “PubChem BioAssay data set” (2004)
Active and inactive are the calls of the source.

Tests used:
[1] = target: T1, Carboxy-terminal domain RNA polymerase II polypeptide A small phosphatase 1 (Homo sapiens, UniProt Q9GZU7); assay: CTDSP1 inhibitors, concentration-response, biochemical, absorbance readout, ultra-high-throughput screen actives (AID 540297); assay type: functional
T1 sequence (Q9GZU7 whole entry): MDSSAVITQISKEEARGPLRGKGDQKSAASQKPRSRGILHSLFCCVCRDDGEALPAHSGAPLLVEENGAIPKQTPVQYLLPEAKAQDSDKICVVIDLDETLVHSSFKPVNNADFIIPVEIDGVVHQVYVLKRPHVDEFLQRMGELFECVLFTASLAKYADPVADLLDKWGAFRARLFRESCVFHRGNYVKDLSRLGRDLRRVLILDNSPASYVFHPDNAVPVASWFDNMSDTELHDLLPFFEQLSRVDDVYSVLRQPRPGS

[2] = target: T2, SUMO-activating enzyme (Homo sapiens, UniProt Q9UBT2); assay: blockers of UBC9-mediated SUMO conjugation – biochemical, AlphaScreen, SUMOylation inhibitor project, confirmation (AID 2018); assay type: functional
[3] = target: T2, SUMO-activating enzyme; assay: blockers of SAE1/SAE2–UBC9 SUMO transfer – biochemical, HTRF, uHTS, primary screen (AID 2006); assay type: protein-complex assay
[4] = target: Induced myeloid leukemia cell differentiation protein Mcl-1 (Homo sapiens, UniProt Q07820); assay type: functional
[5] = target: Genome polyprotein (Hepatitis C virus, UniProt Q2Q167); assay: disruption of hepatitis C core self-association – biochemical, TR-FRET, dose response (AID 2159); parameters: species or system Hepacivirus hominis;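 further: blocks dimerization of HCV core protein measured by TR-FRET between tagged core106 pairs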
[6] = target: Eukaryotic translation initiation factor 4E (Mus musculus, UniProt P63073); assay: blockers of eIF4G binding by eIF4E – biochemical, TR-FRET, dose response (AID 855); assay type: functional;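 further: potency for disrupting eIF4E binding to eIF4GI seen as loss of FRET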
[7] = target: Heat shock protein HSP 90-alpha (Homo sapiens, UniProt P07900); assay: Luminescence-based dose response biochemical high throughput screening assay for inhibitors of the Heat Shock Protein 90 (HSP90). [Related pubchem assays: 1831 (Summary AID.), 1846 (Confirmation screen.), 1789 (Primary screen.)]
[8] = target: T3, Rac GTPase-activating protein 1 (Homo sapiens, UniProt Q9H0H5); assay: blockers of MgcRacGAP-driven Rac1 GTP hydrolysis – biochemical, ADP Hunter fluorescence, primary and confirmatory, confirmation (AID 624330); assay type: functional
T3 sequence (Q9H0H5 whole entry): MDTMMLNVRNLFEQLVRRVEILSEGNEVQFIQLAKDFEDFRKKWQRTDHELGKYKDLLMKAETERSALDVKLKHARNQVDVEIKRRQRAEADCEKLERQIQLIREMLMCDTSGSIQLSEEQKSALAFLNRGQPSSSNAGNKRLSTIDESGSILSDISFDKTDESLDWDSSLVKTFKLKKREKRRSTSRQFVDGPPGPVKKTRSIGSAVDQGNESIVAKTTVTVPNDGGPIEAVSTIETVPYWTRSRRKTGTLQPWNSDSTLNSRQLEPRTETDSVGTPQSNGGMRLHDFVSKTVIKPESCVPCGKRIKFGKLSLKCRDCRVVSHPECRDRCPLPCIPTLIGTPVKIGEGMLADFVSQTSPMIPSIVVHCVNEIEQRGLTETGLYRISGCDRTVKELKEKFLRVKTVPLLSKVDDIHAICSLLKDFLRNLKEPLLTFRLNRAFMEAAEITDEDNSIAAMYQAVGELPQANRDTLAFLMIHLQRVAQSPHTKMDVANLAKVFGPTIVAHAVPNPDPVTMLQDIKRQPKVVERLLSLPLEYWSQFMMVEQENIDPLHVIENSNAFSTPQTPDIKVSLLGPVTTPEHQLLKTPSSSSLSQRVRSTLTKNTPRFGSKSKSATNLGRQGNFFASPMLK

[9] = target: E3 ubiquitin-protein ligase Mdm2 (Homo sapiens, UniProt Q00987); assay: MDM2-luc reporter signal enhancers, multi-concentration potency testing, MDM2 ubiquitin-protein ligase inhibitor program, whole-cell format, luminescence detection, 384-well microplate (AID 1394); assay type: functional;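 further: MDM2 E3 inhibitors raise luminescence so EC50 is for signal enhancement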
[10] = target: T4, Heat shock factor protein 1 (Mus musculus, UniProt P38532); assay: enhancement of HSF1-driven luciferase signal – cell-based, NIH3T3, luminescence, dose retest, confirmation (AID 435004); assay type: functional;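 further: stress induced by proteasome inhibitor MG132 added 30 min after compound; luciferase reporter driven by HSF1 response element in NIH3T3 cells; actives raise luminescence as potentiators of the MG132 stress response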
T4 sequence (P38532 whole entry): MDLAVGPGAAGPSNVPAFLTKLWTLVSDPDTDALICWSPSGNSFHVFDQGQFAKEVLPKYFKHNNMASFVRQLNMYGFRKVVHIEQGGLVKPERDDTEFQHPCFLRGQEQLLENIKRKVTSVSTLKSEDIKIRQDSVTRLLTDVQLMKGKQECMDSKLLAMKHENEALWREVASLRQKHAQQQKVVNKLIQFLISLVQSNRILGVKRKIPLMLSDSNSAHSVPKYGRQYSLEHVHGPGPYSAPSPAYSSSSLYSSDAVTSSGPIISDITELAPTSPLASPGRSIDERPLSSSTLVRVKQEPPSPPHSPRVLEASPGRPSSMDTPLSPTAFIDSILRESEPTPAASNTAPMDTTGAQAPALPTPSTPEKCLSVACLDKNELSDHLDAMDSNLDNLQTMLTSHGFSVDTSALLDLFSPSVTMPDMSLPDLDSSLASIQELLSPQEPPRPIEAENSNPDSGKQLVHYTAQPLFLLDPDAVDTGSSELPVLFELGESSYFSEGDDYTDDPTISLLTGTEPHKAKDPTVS

[11] = target: Mitogen-activated protein kinase 10 (Homo sapiens, UniProt P53779); assay: Dose response biochemical screening assay for inhibitors of c-Jun N-Terminal Kinase 3 (JNK3). [Related pubchem assays: 746 ]
[12] = tested on: H9c2; assay: cells; assay type: functional, cell-based; details: Rattus norvegicus, H9c2, Myocardium;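 further: confirmatory concentration-response retest of ultra-high-throughput screening hits for modulation of myocardial damage; cell death induced by hydrogen peroxide oxidative stress; compound pretreatment for 60 min then peroxide exposure for 2 h; potency is for protecting the cells against peroxide damage rather than for killing them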
[13] = target: Major prion protein (Homo sapiens, UniProt P04156); assay type: functional, cell-based
[14] = cells
[15] = M. tuberculosis growth inhibition, HTS (AID 449762); assay type: functional
[16] = target: T5, Aminopeptidase N (Plasmodium falciparum FcB1/Columbia, UniProt O96935); assay: malaria alanyl aminopeptidase activity blockers – biochemical, fluorogenic H-Leu-NHMec substrate, 1536-well (AID 1445); parameters: species or system Plasmodium falciparum 3D7, 3D7
T5 sequence (O96935 whole entry): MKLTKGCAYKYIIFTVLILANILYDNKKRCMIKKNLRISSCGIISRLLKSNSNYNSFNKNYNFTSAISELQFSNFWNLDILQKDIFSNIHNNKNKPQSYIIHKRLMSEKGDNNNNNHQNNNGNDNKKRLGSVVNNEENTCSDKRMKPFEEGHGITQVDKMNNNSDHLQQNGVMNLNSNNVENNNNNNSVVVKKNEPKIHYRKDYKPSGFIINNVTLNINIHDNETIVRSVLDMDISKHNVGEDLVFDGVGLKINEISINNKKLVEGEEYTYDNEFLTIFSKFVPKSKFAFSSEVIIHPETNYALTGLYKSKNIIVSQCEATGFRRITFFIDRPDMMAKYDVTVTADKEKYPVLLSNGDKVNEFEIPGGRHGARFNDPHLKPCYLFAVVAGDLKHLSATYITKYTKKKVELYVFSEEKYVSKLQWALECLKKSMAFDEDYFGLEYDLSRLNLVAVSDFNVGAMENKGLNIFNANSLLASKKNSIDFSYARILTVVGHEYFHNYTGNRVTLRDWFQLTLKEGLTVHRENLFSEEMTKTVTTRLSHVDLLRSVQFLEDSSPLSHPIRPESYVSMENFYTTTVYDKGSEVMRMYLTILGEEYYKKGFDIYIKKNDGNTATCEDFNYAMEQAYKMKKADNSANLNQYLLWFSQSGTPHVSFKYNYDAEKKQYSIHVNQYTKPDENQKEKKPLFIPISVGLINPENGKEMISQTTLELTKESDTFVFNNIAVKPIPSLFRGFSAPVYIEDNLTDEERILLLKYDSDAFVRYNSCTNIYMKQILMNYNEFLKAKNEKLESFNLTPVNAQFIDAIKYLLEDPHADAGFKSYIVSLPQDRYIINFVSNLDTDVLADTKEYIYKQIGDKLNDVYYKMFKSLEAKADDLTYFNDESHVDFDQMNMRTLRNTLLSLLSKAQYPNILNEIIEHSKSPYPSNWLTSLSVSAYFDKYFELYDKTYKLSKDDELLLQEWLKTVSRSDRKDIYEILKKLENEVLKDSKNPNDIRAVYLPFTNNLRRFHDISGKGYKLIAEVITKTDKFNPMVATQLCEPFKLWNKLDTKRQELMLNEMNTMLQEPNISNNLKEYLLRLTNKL

[17] = target: T6, Cysteine protease ATG4B (Homo sapiens, UniProt Q9Y4P1); assay type: functional;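 further: Fluorescence-based dose-response confirmation assay measuring inhibition of ATG4B activity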
T6 sequence (Q9Y4P1 whole entry): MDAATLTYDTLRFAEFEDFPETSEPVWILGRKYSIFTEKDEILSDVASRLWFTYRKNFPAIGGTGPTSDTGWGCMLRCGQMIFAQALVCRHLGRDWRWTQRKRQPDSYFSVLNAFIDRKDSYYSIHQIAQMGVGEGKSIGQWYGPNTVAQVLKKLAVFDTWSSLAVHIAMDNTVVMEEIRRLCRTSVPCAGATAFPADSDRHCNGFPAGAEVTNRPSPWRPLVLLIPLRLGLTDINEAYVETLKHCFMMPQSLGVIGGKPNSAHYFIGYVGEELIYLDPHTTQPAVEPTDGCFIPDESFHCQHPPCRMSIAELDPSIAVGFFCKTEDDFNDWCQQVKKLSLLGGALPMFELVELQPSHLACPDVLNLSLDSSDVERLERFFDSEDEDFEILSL

[18] = target: DNA (cytosine-5)-methyltransferase 1 (Homo sapiens, UniProt P26358); assay: inhibition of DNA methylation by DNMT1 – biochemical, fluorescent molecular beacon, confirmation (AID 602386); assay type: functional
[19] = target: Bifunctional protein GlmU (Mycobacterium tuberculosis, UniProt P9WMN3); assay: Inhibitors of Mycobacterial Glucosamine-1-phosphate acetyl transferase (GlmU). Secondary screen.; parameters: species or system Mycobacterium tuberculosis H37Rv
[20] = target: T7, Zinc finger protein mex-5 (Caenorhabditis elegans, UniProt Q9XUB2); assay: potency of MEX-5 RNA-binding blockers – biochemical, C. elegans, fluorescence polarization, dose response (AID 1960)
T7 sequence (Q9XUB2 whole entry): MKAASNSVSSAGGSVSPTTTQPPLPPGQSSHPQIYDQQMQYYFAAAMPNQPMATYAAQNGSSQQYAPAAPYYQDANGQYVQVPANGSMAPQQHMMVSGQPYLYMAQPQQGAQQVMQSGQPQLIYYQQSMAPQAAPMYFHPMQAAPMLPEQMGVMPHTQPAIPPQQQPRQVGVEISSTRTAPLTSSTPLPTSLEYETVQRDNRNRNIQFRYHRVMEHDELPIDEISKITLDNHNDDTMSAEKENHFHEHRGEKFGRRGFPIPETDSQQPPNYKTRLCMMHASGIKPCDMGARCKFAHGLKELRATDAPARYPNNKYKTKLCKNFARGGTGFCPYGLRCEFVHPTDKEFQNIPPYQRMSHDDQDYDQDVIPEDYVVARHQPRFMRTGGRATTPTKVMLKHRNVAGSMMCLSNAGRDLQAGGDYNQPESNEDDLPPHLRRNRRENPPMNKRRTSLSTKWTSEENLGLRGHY

[21] = target: Phospholipase A2 (Homo sapiens, UniProt P04054); assay type: functional;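 further: confirmatory dose-response counterscreen on phospholipase A2, testing hits that came from an ultra-high-throughput screen for ATG4B inhibitors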
[22] = target: T8, RNA-binding protein pos-1 (Caenorhabditis elegans, UniProt G5EF15); assay: disruptors of C. elegans POS-1 RNA interaction – biochemical, fluorescence polarization, dose response (AID 1964);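 further: purified POS-1 fused to maltose binding protein made in E. coli; potency of compounds blocking POS-1 binding to fluorescent RNA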
T8 sequence (G5EF15 whole entry): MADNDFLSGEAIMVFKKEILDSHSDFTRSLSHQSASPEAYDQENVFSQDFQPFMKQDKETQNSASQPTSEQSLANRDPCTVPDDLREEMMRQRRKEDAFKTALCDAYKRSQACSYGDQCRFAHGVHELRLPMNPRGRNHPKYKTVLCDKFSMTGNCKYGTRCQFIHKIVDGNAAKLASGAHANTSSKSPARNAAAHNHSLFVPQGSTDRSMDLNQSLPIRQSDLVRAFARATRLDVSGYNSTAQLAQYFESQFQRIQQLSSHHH

O=C(Nc1nccs1)c1cc(-c2ccco2)nc2ccccc12
IC50 [1]: 3.98 µM (active) | IC50 [2]: 6.87 µM (active) | IC50 [3]: 24.2 µM (active) | IC50 [4]: 2.5 µM (active) | IC50 [5]: > 49.8 µM (not active) | IC50 [6]: > 64 µM (inactive)

CCOC(=O)c1csc(NC(=O)c2cc3ccccc3o2)n1
IC50 [7]: 0.784 µM (active)

CCCOC(=O)c1ccc(O)c(OC)c1
IC50 [8]: 127 µM (active) | EC50 [9]: 468 µM (not active)

C/C(=N/Cc1ccco1)C1=C(O)c2ccccc2C1=O
EC50 [10]: > 260 µM (inactive) | IC50 [11]: 30.9 µM (not active)

Brc1ccc(-c2nn3c(-c4ccco4)nnc3s2)o1
IC50 [12]: > 79 µM (inactive) | IC50 [11]: 58 µM (not active) | IC50 [13]: 4.14 µM (active) | IC50 [14]: > 138 µM (inactive)

COc1ccc(NC(=O)ON=C2c3ccccc3-c3ccccc32)cc1
IC50 [15]: > 100 µM (active)

O=C(O)c1ccc(-c2ccc(/C=C3\NC(=O)N(Cc4ccc(Cl)cc4)C3=O)o2)cc1Cl
IC50 [16]: 40.8 µM (active) | IC50 [17]: 16.2 µM (active) | IC50 [18]: 4.54 µM (active) | IC50 [19]: 67.1 µM (active) | EC50 [20]: 23.5 µM (active) | IC50 [21]: 16.1 µM (active) | EC50 [22]: 29.4 µM (active)

Cc1nc(CSc2nsc(/C=C/N(C)C)c2C#N)cs1
EC50 [9]: 19.8 µM (not active)

Nc1cc(-c2ccccc2)ccc1O
IC50 [7]: 3.39 µM (active)
